Measured values from US7067503B2, “17-aryl linker derivatised estrogen 3-sulphamates as inhibitors of steroid sulphatase” (priority 2000, dated 2006).
Like-named read-outs stand apart in the source and are kept apart here. Each block holds one compound with its values, some of them ahead of it.

Columns and labels:
STS = biological target: T1, STS (Homo sapiens, UniProt P08842); assay: Plate assay, % inhibition
T1 sequence (P08842 22-583): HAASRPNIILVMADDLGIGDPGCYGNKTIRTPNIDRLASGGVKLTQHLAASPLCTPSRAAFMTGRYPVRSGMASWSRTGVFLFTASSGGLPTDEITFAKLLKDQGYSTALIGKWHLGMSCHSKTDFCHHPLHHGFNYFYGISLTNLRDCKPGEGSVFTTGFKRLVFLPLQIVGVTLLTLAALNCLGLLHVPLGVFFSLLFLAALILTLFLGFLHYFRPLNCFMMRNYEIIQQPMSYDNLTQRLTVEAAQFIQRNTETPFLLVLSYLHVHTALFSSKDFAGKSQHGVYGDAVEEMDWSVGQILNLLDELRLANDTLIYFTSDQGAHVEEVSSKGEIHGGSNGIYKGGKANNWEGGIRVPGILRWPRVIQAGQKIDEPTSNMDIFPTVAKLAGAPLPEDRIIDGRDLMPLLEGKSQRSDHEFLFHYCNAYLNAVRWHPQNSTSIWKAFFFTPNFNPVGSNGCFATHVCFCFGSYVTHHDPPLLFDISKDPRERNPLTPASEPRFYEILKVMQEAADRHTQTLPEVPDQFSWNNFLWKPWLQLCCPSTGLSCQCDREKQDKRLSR

T47D cell = T47D cell growth, % inhibition; format: cell-based; settings: Homo sapiens
steroid sulphatase = biological target: T2, steroid sulphatase (Homo sapiens, UniProt P08842); assay: Inhibition of steroid sulphatase activity in placental microsomes (Protocol 2); format: biochemical; settings: for inhibition at 0.01 µM / inhibition at 0.1 µM / inhibition at 10 µM: read-out: Placental Microsomes, % inhibition
T2 construct: Sulphatase-positive human placenta from normal term pregnancies are thoroughly minced with scissors; from tissue; host or cells: human term placenta (2000 g supernatant / microsomes)

E1-STS enzyme = biological target: T3, E1-STS enzyme (Homo sapiens, UniProt P08842); settings: cited from earlier work
T3 sequence (P08842 22-583): T1 sequence (P08842 22-583)

[1] = system: Meth A sarcoma, B16 melanoma or MDA-MB-435 estrogen receptor negative (ER−) breast cancer cells; settings: subcutaneous injection of tumour cells; cited from earlier work
tubulin = settings: at high concentrations; cited from earlier work
T47D cells = assay: IC50 in T47D cells (table footnote); format: cell-based; settings: Homo sapiens
Description: The STS inhibition provided by the compounds was determined in accordance with a plate assay and the Protocols set out herein.

[2] = in vivo; cited from earlier work
[3] = rats, higher than that of estradiol; cited from earlier work
[4] = rats; cited from earlier work
[5] = 0.1 μM, -ve % means stimulation
[6] = read-out: Plate assay % inhibition
[7] = 10 nM, superscript 1 or 2 = run with the reference values of that footnote, -ve % means stimulation
[8] = 1 μM, superscript 1 or 2 = run with the reference values of that footnote, -ve % means stimulation
[9] = 0.1 μM, read-out: Plate Assay, % inhibition
[10] = 1 μM, read-out: Plate Assay, % inhibition
[11] = 10 μM, read-out: Plate Assay, % inhibition

melting point: 173 to 177 °C
Compound: COc1cc2c(cc1O)CCC1C2CC[C@@]2(C)C1CC[C@@]2(O)Cc1cccc(Br)c1 (stereo partly drawn)

melting point: 250 to 255 °C
Compound: C[C@]12CCC3c4ccc(O)cc4CCC3C1CC[C@@]2(O)Cc1ccccn1 (stereo partly drawn)

Compound: C[C@]12CC[C@@H]3c4ccc(OS(N)(=O)=O)cc4CC[C@H]3[C@@H]1CC[C@@H]2O [BLE00084]
Plate assay % inhibition (STS; [5]): 4% | Plate assay % inhibition (STS; 10 μM, -ve % means stimulation): 23%

Compound: CC1=C2CCC3c4ccc(OS(N)(=O)=O)cc4CCC3C2CC1 (stereo not drawn) [BLE00086]
inhibition at 10 µM (T47D cell): 93.2% | inhibition at 0.1 µM (STS; [6]): 8% | inhibition at 1 µM (STS; [6]): 3% | inhibition at 10 µM (STS; [6]): 14%

Compound: COc1cc2c(cc1O)CCC1C2CC[C@@]2(C)C1CC[C@@]2(O)Cc1ccc(C(C)(C)C)cc1 (stereo partly drawn) [BLE01008, 3,17β-Dihydroxy-17α-(4-tert-butylbenzyl)-2-methoxyestra-1,3,5(10)-triene]
melting point: 223 to 225 °C | inhibition at 0.1 µM (STS; [6]): -12% | inhibition at 1 µM (STS; [6]): -15%

Compound: COc1cc2c(cc1O)CCC1C2CC[C@@]2(C)C1CC[C@@]2(O)Cc1ccccc1 (stereo partly drawn) [BLE01014, 3,17β-Dihydroxy-17α-benzyl-2-methoxyestra-1,3,5(10)-triene]
melting point: 209 to 213 °C | inhibition at 0.1 µM (STS; [6]): -14% | inhibition at 1 µM (STS; [6]): -14%

Compound: COc1cc2c(cc1OS(N)(=O)=O)CC[C@@H]1[C@@H]2CC[C@@]2(C)[C@H]1CC[C@@]2(O)Cc1ccc(C(C)(C)C)cc1 [BLE01016, 3-O-Sulfamate 17β-hydroxy-17α-(4-tert-butylbenzyl)-2-methoxyestra-1,3,5(10) -triene]
inhibition at 0.1 µM (STS; [6]): -14% | inhibition at 1 µM (STS; [6]): -10% | inhibition at 10 µM (STS; [6]): -3% | IC50 (steroid sulphatase): 4300 nM

Compound: COc1cc2c(cc1OS(N)(=O)=O)CC[C@@H]1[C@@H]2CC[C@@]2(C)[C@H]1CC[C@@]2(O)Cc1ccccc1 [BLE01018, 3-O-Sulfamate 17β-hydroxy-17α-benzyl-2-methoxyestra-1,3,5(10)-triene]
inhibition at 0.1 µM (STS; [6]): -19% | inhibition at 1 µM (STS; [6]): -12% | IC50 (steroid sulphatase): 430 nM

Compound: CC12CCC3c4ccc(OS(N)(=O)=O)cc4CCC3C1CCC2OS(N)(=O)=O (stereo not drawn) [BLE99031B]
inhibition at 0.1 µM (STS; [6]): 7% | inhibition at 1 µM (STS; [6]): 12% | inhibition at 10 µM (STS; [6]): 32% | IC50 (steroid sulphatase): 20 nM

Compound: CC(=O)NS(=O)(=O)O[C@H]1CCC2C3CCc4cc(O)ccc4C3CC[C@@]21C (stereo partly drawn) [BLE99058]
Plate assay % inhibition (STS; [5]): 4% | Plate assay % inhibition (STS; 1 μM, -ve % means stimulation): 1% | Placental Microsomes % inhibition (steroid sulphatase; [7]): 0.9^1% | Placental Microsomes % inhibition (steroid sulphatase; [8]): 7.8^1%

Compound: C[C@]12CCC3c4ccc(O)cc4CCC3C1CC[C@@H]2OS(=O)(=O)N(Cc1ccccc1)Cc1ccccc1 (stereo partly drawn) [BLE99060]
Placental Microsomes % inhibition (steroid sulphatase; [7]): −3.2^2% | Placental Microsomes % inhibition (steroid sulphatase; [8]): 1.36^2%

Compound: C[C@]12CCC3c4ccc(OS(N)(=O)=O)cc4CCC3C1CC[C@@H]2OS(=O)(=O)N(Cc1ccccc1)Cc1ccccc1 (stereo partly drawn) [BLE99063]
Plate assay % inhibition (STS; [5]): 0% | Plate assay % inhibition (STS; 1 μM, -ve % means stimulation): 15% | Placental Microsomes % inhibition (steroid sulphatase; [7]): −1.9^1% | Placental Microsomes % inhibition (steroid sulphatase; [8]): 38.2^1%

Compound: CC(=O)NS(=O)(=O)O[C@H]1CCC2C3CCc4cc(OS(N)(=O)=O)ccc4C3CC[C@@]21C (stereo partly drawn) [BLE99065]
Plate assay % inhibition (STS; [5]): 7% | Plate assay % inhibition (STS; 1 μM, -ve % means stimulation): 5% | Plate assay % inhibition (STS; 10 μM, -ve % means stimulation): 23% | Placental Microsomes % inhibition (steroid sulphatase; [7]): 9.8^1% | Placental Microsomes % inhibition (steroid sulphatase; [8]): 91.0^1%

Compound: C[C@]12CCC3c4ccc(O)cc4CCC3C1CC[C@H]2OS(=O)(=O)N(Cc1ccccc1)Cc1ccccc1 (stereo partly drawn) [BLE99066]
Plate assay % inhibition (STS; [5]): 11% | Plate assay % inhibition (STS; 1 μM, -ve % means stimulation): 5% | Plate assay % inhibition (STS; 10 μM, -ve % means stimulation): 27% | Placental Microsomes % inhibition (steroid sulphatase; [7]): 1.4^1% | Placental Microsomes % inhibition (steroid sulphatase; [8]): 4.5^1%

Compound: CN(C)S(=O)(=O)O[C@H]1CCC2C3CCc4cc(O)ccc4C3CC[C@@]21C (stereo partly drawn) [BLE99067]
Plate assay % inhibition (STS; [5]): −5% | Plate assay % inhibition (STS; 1 μM, -ve % means stimulation): −1% | Plate assay % inhibition (STS; 10 μM, -ve % means stimulation): 50% | Placental Microsomes % inhibition (steroid sulphatase; [7]): −0.1^1% | Placental Microsomes % inhibition (steroid sulphatase; [8]): 8.7^1%

Compound: C[C@]12CCC3c4ccc(OS(N)(=O)=O)cc4CCC3C1CC[C@H]2OS(=O)(=O)N(Cc1ccccc1)Cc1ccccc1 (stereo partly drawn) [BLE99068]
Plate assay % inhibition (STS; [5]): −18% | Plate assay % inhibition (STS; 1 μM, -ve % means stimulation): −1% | Plate assay % inhibition (STS; 10 μM, -ve % means stimulation): 19% | Placental Microsomes % inhibition (steroid sulphatase; [7]): 4.9^1% | Placental Microsomes % inhibition (steroid sulphatase; [8]): 58.2^1%

Compound: CN(C)S(=O)(=O)OC1CCC2C3CCc4cc(OS(N)(=O)=O)ccc4C3CCC12C (stereo not drawn) [BLE99069]
Plate assay % inhibition (STS; [5]): 3% | Plate assay % inhibition (STS; 1 μM, -ve % means stimulation): 10% | Placental Microsomes % inhibition (steroid sulphatase; [7]): 30.3^1% | Placental Microsomes % inhibition (steroid sulphatase; [8]): 96.3^1%

Compound: CCCCCN(CCCCC)S(=O)(=O)O[C@H]1CCC2C3CCc4cc(O)ccc4C3CC[C@@]21C (stereo partly drawn) [BLE99073]
Placental Microsomes % inhibition (steroid sulphatase; [7]): 1.2^2% | Placental Microsomes % inhibition (steroid sulphatase; [8]): −11.8^2%

Compound: CCCCCN(CCCCC)S(=O)(=O)O[C@H]1CCC2C3CCc4cc(OS(N)(=O)=O)ccc4C3CC[C@@]21C (stereo partly drawn) [BLE99074]
Placental Microsomes % inhibition (steroid sulphatase; [8]): 23.7^2%

Compound: COc1cc2c(cc1OS(N)(=O)=O)CC[C@@H]1[C@@H]2CC[C@]2(C)C(=O)CC[C@@H]12 [Compound 2-MOEMATE, 2-methoxyoestrone-3-O-sulphamate, reference compound]
Plate assay % inhibition (STS; [5]): 15% | Plate assay % inhibition (STS; 1 μM, -ve % means stimulation): 42% | Plate assay % inhibition (STS; 10 μM, -ve % means stimulation): 88% | potency as a steroid sulphatase inhibitor relative to EMATE (E1-STS enzyme): equipotent with EMATE

Compound: COc1cc2c(cc1O)CC[C@@H]1[C@@H]2CC[C@]2(C)[C@@H](O)CC[C@@H]12 [Compound 2-MeOE2, 2-methoxyoestradiol]
growth of tumours in vivo [1]: inhibits the growth of tumours | inhibition of colchicine binding to tubulin (tubulin): weak inhibitor of colchicine binding to tubulin

Compound: CSc1cc2c(cc1OS(N)(=O)=O)CCC1C2CCC2(C)C1CCC2(O)Cc1ccc(C(C)(C)C)cc1 (stereo not drawn) [Compound 3]
inhibition at 0.1 µM (STS; [9]): < 1% | inhibition at 1 µM (STS; [10]): < 1% | inhibition at 10 µM (STS; [11]): 48% | inhibition at 0.01 µM (steroid sulphatase; 10 nM): 17.6% | inhibition at 0.1 µM (steroid sulphatase; 100 nM): 56% | inhibition at 10 µM (steroid sulphatase; 10 μM): 86.4% | IC50 (steroid sulphatase; read-out: Placental Microsomes, IC50): 80 nM

Compound: NS(=O)(=O)Oc1ccc(C(=O)c2ccccc2)cc1 [Compound 6]
Plate assay % inhibition (STS; 0.1 μM): <1% | Plate assay % inhibition (STS; 1 μM): 1% | Plate assay % inhibition (STS; 10 μM): 11%

Compound: CSc1cc2c(cc1OS(N)(=O)=O)CCC1C2CCC2(C)C(=O)CCC12 (stereo not drawn) [Compound 7]
inhibition at 0.1 µM (STS; [9]): 3% | inhibition at 1 µM (STS; [10]): 53% | inhibition at 10 µM (STS; [11]): 55% | inhibition at 0.01 µM (steroid sulphatase; 10 nM): 5.4% | IC50 (T47D cells): 2.5 nM

Plate assay % inhibition (STS; 0.1 μM): <1% | Plate assay % inhibition (STS; 1 μM): <4% | Plate assay % inhibition (STS; 10 μM): 14%
Compound: NS(=O)(=O)Oc1ccc(C(=O)C=Cc2ccccc2)cc1 [Compound 8]

Plate assay % inhibition (STS; 0.1 μM): <1% | Plate assay % inhibition (STS; 1 μM): 1% | Plate assay % inhibition (STS; 10 μM): 16% | Placental Microsomes % inhibition (steroid sulphatase; 10 nM): <5% | Placental Microsomes % inhibition (steroid sulphatase; column head printed "μM"): 66.0%
Compound: NS(=O)(=O)Oc1ccc2oc3ccccc3c2c1 [Compound 9]

Compound: C[C@]12CC[C@@H]3c4ccc(OS(=O)(=O)O)cc4CC[C@H]3[C@@H]1CCC2=O [Compound E1S, oestrone sulphate]
half-life in blood [2]: 10 to 12 h

Compound: CC12CCC3c4ccc(OS(N)(=O)=O)cc4CCC3C1CCC2=O (stereo not drawn) [EMATE, oestrone-3-sulphamate, reference compound]
oral uterotrophic activity relative to estradiol [3]: 100 times | memory effect [4]: memory enhancing effect | IC50 (steroid sulphatase): 18 nM | Placental Microsomes % inhibition (steroid sulphatase; human): 97.8% | inhibition at 0.01 µM (steroid sulphatase): 27.3% | inhibition at 0.1 µM (steroid sulphatase): 85.1% | inhibition at 10 µM (steroid sulphatase): 99.5% | mode of E1-STS inhibition (E1-STS enzyme): time- and concentration-dependent manner

Compound: COc1cc2c(cc1OS(N)(=O)=O)CCC1C2CCC2(C)C(OS(N)(=O)=O)CCC12 (stereo not drawn) [OSO2NH2, OMe, C-β-OSO2NH2, α-H]
inhibition at 0.1 µM (STS; [6]): 7% | inhibition at 1 µM (STS; [6]): 12% | inhibition at 10 µM (STS; [6]): 32%

Compound: oestrone-3-N-sulphamate
mode of E1-STS inhibition (E1-STS enzyme): weaker non-time-dependent inactivators

Compound: oestrone-3-S-sulphamate
mode of E1-STS inhibition (E1-STS enzyme): weaker non-time-dependent inactivators
